Experimental data published in patent publication EP0029617A1, “Use of tertiary heterocyclic amines as synergists in pesticides; derivatives of cycloamines” (priority 1979, dated 1981).
Where two headings read alike, the source gives them in different places.

What was measured:
Drosophila melanogaster = assay: whole plant or invertebrate; assay type: in vivo; conditions: for Faktor der Wirkungssteigerung bei Dimi-tilan: amine 0,05 % + Dimetilan 0,0001 %
Text: Die insektiziden Wirkungen von tertiären heterocyclischen Aminen und die synergistischen Eigenschaften mit dem Phosphorsäureester Dimethoat und dem Carbamat Dimetilan, getestet an Drosophila melanogaster.
Die Versuche wurden in Petrischalen von 10 cm Durchmesser ausgeführt. Es wurden zunächst die gerade noch wirksamen Konzentrationen von Dimethoat und Dimetilan bestimmt. Für Dimethoat wurde 0,005 % und für Dimetilan 0,0001 % als günstige Versuchskonzentration ermittelt. Die Aminkomponente wurde mit 1 ml 0,05%iger Lösung + 1 ml Aceton auf insektizide Wirkung getestet. Zur Bestimmung des Synergismus wurde 1 ml 0,05%ige Aminlösung + 1 ml 0,005.%ige Dimethoatlösung, bzw. + 1 ml 0,0001%ige Dimetilanlösung pro Petrischale eingesetzt. Alle Verdünnungen wurden mit Aceton als Lösungsmittel hergestellt.
In den Petrischalen wurden die Lösungen am Boden gut verteilt und 30 min lang antrocknen lassen. In jede Petrischale wurden 20 mit Kohlendioxid betäubte Drosophila eingezählt. Alle 5 min, insgesamt 12 mal, wurde die Anzahl der toten Drosophila ausgezählt und notiert. Die Zahlen wurden aufsummiert und im Verhältnis zur möglichen Zahl an toten Drosophila in % angegeben, wobei der Tot aller Drosophila innerhalb der ersten 5 min 100 % Wirkung entspricht. Jeder Versuch wurde mit 3 Wiederholungen durchgeführt. In Tabelle 1 sind die Mittelwerte der Ergebnisse zusammengestellt.
Zur Ermittlung des synergistischen Faktors wurden die Einzelwerte pro Zeiteinheit durch die für Dimethoat, bzw. Dimetilan für die jeweilige Zeiteinheit gefundenen Werte dividiert. Die Werte für jede Zeiteinheit wurden summiert und durch die Anzahl der Zeiteinheiten dividiert. Die Versuche wurden bei sonst stets gleichbleibenden Bedingungen bei Temperaturen von 20 - 22°C ausgeführt. Die Kontrollversuche zeigten bei Versuchsabschluß stets 0 % Mortalität. Hat die Substanz selbst eine insektizide Wirkung, so wurden die Wirkungsfaktoren für Dimethoat und Dimetilan nach Abzug des Substanzwertes berechnet und in der Tabelle aufgeführt.
Im Beispiel 1 war das Verhältnis von Insektizid und erfindungsgemäßem Amin 1 : 10 in den Gemischen mit Dimethoat. In der Tabelle 2 sind Verhältnisse von 1 : 1, 1 : 2 und 1 : 0,2 bei Versuchen mit Dimethoat aufgeführt, dabei wurde das Dimethoat immer in einer Konzentation von 0,005 % eingesetzt. Die Tabelle zeigt, daß auch bei diesen Verhältnissen noch eine gute synergistische Wirkung vorhanden ist, und es keineswegs einer großen überdosierung des Amins bedarf.

[1] = tested on: Kornkäfer (sitophilus granarius L); assay: whole plant or invertebrate; assay type: in vivo; conditions: for mortality at 1000 µg/mL: Sitophilus granarius, read-out: Wirksamkeit in % Substanz allein
Procedure, shortened: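 Acetone solutions (2 ml) were dried as films in 15 cm Petri dishes and 25 grain weevils added per dish, with a filter inserted after 1 h. Dead beetles were counted at 3 h at 19–21 °C, and % mortality and the synergistic factor were derived.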

[2] = 1 ml 0,05%ige amine solution + 1 ml 0,0001%ige Dimetilan solution
[3] = 1 ml 0,05%ige amine solution + 1 ml 0,005 %ige Dimethoat solution (Dimethoat : amine 1 : 10)
[4] = 1 ml 0,05%ige amine solution + 1 ml Aceton per dish, 20 flies, dead counted every 5 min, 12 times, mean values
[5] = amine 0,05 % + Dimethoat 0,005 %, calculated after subtracting the amine's own effect
[6] = calculated after subtracting the amine's own effect
[7] = amine 1 mg/ml + Ripcord 0,01 mg/ml
[8] = amine 1 mg/ml in Aceton mixed 1 : 1 with Aceton, 2 ml per dish, 25 weevils, dead counted after 3 h
[9] = amine 1 mg/ml mixed 1 : 1 with Ripcord 0,01 mg/ml, 3 h
[10] = amine 1 mg/ml mixed 1 : 1 with Talcord 0,01 mg/ml, 3 h
[11] = amine 1 mg/ml + Talcord 0,01 mg/ml
[12] = Drosophila melanogaster, 1 ml 0,05%ige amine solution + 1 ml Aceton per dish, 20 flies, dead counted every 5 min, 12 times, mean values, read-out: Wirksamkeit in % Substanz allein
[13] = drosophila melanogaster, in vivo
[14] = sitophilus granarius, in vivo, 3 h

With C(CCCCN1CCOCC1)CCCN1CCOCC1 [1,8-N,N-Dimorpholino-octan] the “Wirksamkeit in % Substanz +Dimeti-lan” value (Drosophila melanogaster; [2]) was 10,4%, the “Wirksamkeit in % Substanz +Dimethoat” value (Drosophila melanogaster; [3]) was 23,8% and the “Wirksamkeit in % Substanz allein” value (Drosophila melanogaster; [4]) was 1,3%. For the same compound, the “Faktor der Wirkungssteigerung bei Dime-methoat” value (Drosophila melanogaster; [5]) was 2,62, the “Faktor der Wirkungssteigerung bei Dimi-tilan” value (Drosophila melanogaster; [6]) was 3,64 and the “Synergistischer Faktor bei Ripcord” value [1, 7] was 1,56. For the same compound, the “Wirksamkeit in % Substanz allein” value [1, 8] was 44,0%, the “Wirksamkeit in % Substanz +Ripcord” value [1, 9] was 93,2% and the “Wirksamkeit in % Substanz +Talcord” value [1, 10] was 50,8%.
With CCCCCC(CCCCC)N1CCCC1 [6-N-Pyrrolidino-undecan] the “Wirksamkeit in % Substanz +Dimeti-lan” value (Drosophila melanogaster; [2]) was 75,8%, the “Wirksamkeit in % Substanz +Dimethoat” value (Drosophila melanogaster; [3]) was 54,2% and the “Wirksamkeit in % Substanz allein” value (Drosophila melanogaster; [4]) was 39,6%. The “Faktor der Wirkungssteigerung bei Dime-methoat” value (Drosophila melanogaster; [5]) was 1,70, the “Faktor der Wirkungssteigerung bei Dimi-tilan” value (Drosophila melanogaster; [6]) was 14,48 and the “Synergistischer Faktor bei Ripcord” value [1, 7] was 1,90. The “Synergistischer Faktor bei Talcord” value [1, 11] was 6,06, the “Wirksamkeit in % Substanz allein” value [1, 8] was 0% and the “Wirksamkeit in % Substanz +Ripcord” value [1, 9] was 60,0%. The “Wirksamkeit in % Substanz +Talcord” value [1, 10] was 58,8%.
CCCCCCCCCCN1CCCC1 [N-1-Decyl-pyrrolidin] was tested, and the “Wirksamkeit in % Substanz +Dimeti-lan” value (Drosophila melanogaster; [2]) was 4,8%, the “Wirksamkeit in % Substanz +Dimethoat” value (Drosophila melanogaster; [3]) was 17,1% and the mortality at 0.05 % (Drosophila melanogaster; [12]) was 2.9%. The “Faktor der Wirkungssteigerung bei Dime-methoat” value (Drosophila melanogaster; [5]) was 1,65, the mortality at 1000 µg/mL [1, 8] was 81.6% and the “Synergistischer Faktor bei Talcord” value [1, 11] was 1,90. For the same compound, the “Wirksamkeit in % Substanz +Ripcord” value [1, 9] was 100,0% and the “Wirksamkeit in % Substanz +Talcord” value [1, 10] was 100,0%.
In the case of CCCCCCCCCCCCCN1CCCCC1 [N-1-Tridecyl-piperidin], the “Wirksamkeit in % Substanz +Dimeti-lan” value (Drosophila melanogaster; [2]) is reported as 2,3%, the “Wirksamkeit in % Substanz +Dimethoat” value (Drosophila melanogaster; [3]) is reported as 54,6% and the mortality at 0.05 % (Drosophila melanogaster; [12]) is reported as 0%. The mortality at 0.01 % (Drosophila melanogaster; Drosophila melanogaster, amine 0,01 %, read-out: Sub-stanz allein) was 0%, the mortality at 0.05 % (Drosophila melanogaster; Drosophila melanogaster, amine 0,05 %, read-out: Sub-stanz allein) was 0% and the “Substanz + Dime-thoat” value (Drosophila melanogaster; amine 0,01 % + Dimethoat 0,005 %, Dimethoat : Amin 1 : 2) was 42,9%. The “Faktor der Wirkungs-steigerung” value (Drosophila melanogaster; amine 0,01 %, Dimethoat : Amin 1 : 2) was 4,99, the “Substanz + Dime-thoat” value (Drosophila melanogaster; amine 0,05 % + Dimethoat 0,005 %, Dimethoat : Amin 1 : 10) was 54,6% and the “Faktor der Wirkungssteigerung bei Dime-methoat” value (Drosophila melanogaster; [5]) was 6,35. For the same compound, the “Faktor der Wirkungs-steigerung” value (Drosophila melanogaster; amine 0,05 %, Dimethoat : Amin 1 : 10) was 6,35, the mortality at 1000 µg/mL [1, 8] was 0% and the “Synergistischer Faktor bei Ripcord” value [1, 7] was 3,05. The “Synergistischer Faktor bei Talcord” value [1, 11] was 1,77, the “Wirksamkeit in % Substanz +Ripcord” value [1, 9] was 96,0% and the “Wirksamkeit in % Substanz +Talcord” value [1, 10] was 17,2%.
For c1cc2c(cc1CN1CCCC1)OCO2 [N-Piperonyl-pyrrolidin], the “Wirksamkeit in % Substanz +Dimeti-lan” value (Drosophila melanogaster; [2]) was 58,3%, the “Wirksamkeit in % Substanz +Dimethoat” value (Drosophila melanogaster; [3]) was 60,0% and the mortality at 0.05 % (Drosophila melanogaster; [12]) was 28.8%. For the same compound, the “Faktor der Wirkungssteigerung bei Dime-methoat” value (Drosophila melanogaster; [5]) was 3,63, the “Faktor der Wirkungssteigerung bei Dimi-tilan” value (Drosophila melanogaster; [6]) was 11,80 and the mortality at 1000 µg/mL [1, 8] was 41.2%. For the same compound, the “Synergistischer Faktor bei Ripcord” value [1, 7] was 1,87, the “Synergistischer Faktor bei Talcord” value [1, 11] was 4,29 and the “Wirksamkeit in % Substanz +Ripcord” value [1, 9] was 100,0%. The “Wirksamkeit in % Substanz +Talcord” value [1, 10] was 82,8%.
In the case of CCCCOCCOCCN1CCOCC1 [N-(2'-Butoxi-diethylether-(2))-morpholin], the “Wirksamkeit in % Substanz +Dimethoat” value (Drosophila melanogaster; [13]) is reported as 12,9%, the “Wirksamkeit in % Substanz +Dimeti-lan” value (Drosophila melanogaster; [13]) is reported as 3,5% and the “Wirksamkeit in % Substanz allein” value (Drosophila melanogaster; [13]) is reported as 1,7%. The “Faktor der Wirkungssteigerung bei Dime-methoat” value (Drosophila melanogaster; in vivo) was 1,30, the “Synergistischer Faktor bei Ripcord” value ([1]; in vivo) was 2,96 and the “Synergistischer Faktor bei Talcord” value ([1]; in vivo) was 8,12. For the same compound, the “Wirksamkeit in % Substanz +Ripcord” value [1, 14] was 93,2%, the “Wirksamkeit in % Substanz +Talcord” value [1, 14] was 78,8% and the “Wirksamkeit in % Substanz allein” value [1, 14] was 0%.
With C(=Cc1ccccc1)CN1CCCCC1 [N-Cinnamyl-piperidin] the “Wirksamkeit in % Substanz +Dimeti-lan” value (Drosophila melanogaster; [2]) was 82,5%, the “Wirksamkeit in % Substanz +Dimethoat” value (Drosophila melanogaster; [3]) was 77,1% and the mortality at 0.05 % (Drosophila melanogaster; [12]) was 66.3%. For the same compound, the “Faktor der Wirkungssteigerung bei Dime-methoat” value (Drosophila melanogaster; [5]) was 1,25, the “Faktor der Wirkungssteigerung bei Dimi-tilan” value (Drosophila melanogaster; [6]) was 6,48 and the mortality at 1000 µg/mL [1, 8] was 0%. For the same compound, the “Synergistischer Faktor bei Ripcord” value [1, 7] was 3,08, the “Synergistischer Faktor bei Talcord” value [1, 11] was 7,01 and the “Wirksamkeit in % Substanz +Ripcord” value [1, 9] was 97,2%. The “Wirksamkeit in % Substanz +Talcord” value [1, 10] was 68,0%.
